Source: patent publication US20140081017A1, “Histone Deacetylase Inhibitors for Enhancing Activity of Antifungal Agents” (METHYLGENE INC., priority 2012, published 2014)
Converted amounts (≈) assume the structure as drawn.

These compounds were tested on C. glabrata (assay: Checkerboard FIC assay in combination with fluconazole (MIC alone and in combination, FICI)). Conditions: C. glabrata; FICI calculated using a fluconazole MIC of 16 μg/mL.
Type: cell-based, Candida glabrata
Experimental: The ability of the compounds to synergize with azoles against C. glabrata was evaluated by the checkerboard assay, a common laboratory method used to evaluate synergy, antagonism, and indifference using fractional inhibitory concentrations (FICs) and FIC indices (FICI).
The test compounds were supplied as a powder and dissolved in dimethylsulfoxide (DMSO) on the day of assay. Stock solutions were prepared at 640 ug/mL. Fluconazole was dissolved in deionized water to a stock concentration of 320 ug/mL. All test articles were in solution under these conditions.
(§1) The test organisms and reference isolates were streaked for isolation on Sabouraud agar medium (yeasts) or potato dextrose agar (fungi). Colonies were picked by swab from the medium and resuspended in the appropriate broth containing cryoprotectant. The suspensions were aliquoted into cryogenic vials and maintained at −80° C.
(§2) Prior to testing, the yeast isolates were streaked from the frozen vials onto Sabouraud dextrose agar. The plates were incubated overnight at 35° C. The fungal isolate was grown on potato dextrose agar slants and was incubated for 7-10 days at room temperature.
(§3) Both yeast and fungal isolates were tested in RPMI medium buffered with 0.165 M MOPS (3-(N-morpholino)propanesulfonic acid). The pH of the medium was adjusted to 7.0 with 1 N NaOH. The medium was sterile filtered using a 0.2 um PES (polyethersulfone) filter and stored at 4° C. until used.
FIC values were determined using a broth microdilution method (CLSI; 1, 3). To prepare the test plates, automated liquid handlers (Multidrop 384, Labsystems, Helsinki, Finland; Biomek 2000 and Biomek FX, Beckman Coulter, Fullerton Calif.) were used to conduct serial dilutions and liquid transfers.
The wells of standard 96-well microdilution plates (Costar 3795) were filled with 150 uL of DMSO in columns 2-12. Three hundred microliters of each test compound was added to each well in Column 1 of the plates. The Biomek 2000 was used to make eleven 2-fold serial dilutions in each of these “test compound mother” plates. The wells of the “fluconazole mother plates” were filled with 150 uL of sterile water in rows B-H. Row A of these plates was filled with 300 uL of the fluconazole stock solution. Serial 2-fold dilutions were then prepared from top to bottom by hand, using a multichannel pipette in rows B-G. The “daughter plates” were loaded with 180 uL of RPMI using the Multidrop 384. The Biomek FX was used to transfer 5 uL of compound solution from each well of a fluconazole mother plate to the corresponding well in all of the daughter plates in a single step. Then the Biomek FX was used to transfer 5 uL of compound solution from each well of a test compound mother plate to the corresponding well of the corresponding test compound daughter plate (already containing fluconazole at the appropriate concentrations) in a single step. Row H and Column 12 each contained serial dilutions of the test agent and fluconazole alone, respectively, for determination of the MIC.
Standardized inoculum of each organism was prepared per CLSI methods (CLSI; 1, 3). For yeast isolates, colonies were picked from the primary plate and a suspension was prepared in 0.85% saline to equal a 0.5 McFarland turbidity standard. For the fungal isolate, 1 mL of 0.85% saline was dispensed onto a potato dextrose agar slant onto which the isolate had been inoculated 7-10 days previously. Using a swab, a suspension of the fungus was made. After a short time to allow the heavy particles to settle out, a small quantity of the supernatant was dispensed into 0.85% saline and the suspension was adjusted to equal a 0.5 McFarland turbidity standard. Both yeast and fungal isolates were diluted 1:100 in RPMI and then transferred to compartments of sterile reservoirs divided by length (Beckman Coulter). The Biomek 2000 was used to inoculate the plates. […]
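For Minimum Inhibitory Concentrations against Yeast Isolates, Candida albicans in this document: two read times 24 hr and 48 hr of incubation.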
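For Minimum Inhibitory Concentrations against Yeast Isolates, Candida glabrata in this document: two read times 24 hr and 48 hr of incubation.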

Question: How did the “FICI of combination resulting in fluconazole MIC of: 2 ug/mL” value turn out when `O=C(Cc1ccc(CCCCc2ccc(-c3ccccc3)cc2)cc1)NO` [Example 5, 2-(4-(4-(biphenyl-4-yl)butyl)phenyl)-N-hydroxyacetamide] was run?
Answer: Its value is 0.125.

Question: What about the “FICI of combination resulting in fluconazole MIC of: 4 ug/mL” value of the same compound?
Answer: Its value is 0.155.

Question: What about the “FICI of combination resulting in fluconazole MIC of: 8 ug/mL” value of the same compound?
Answer: The value was 0.280.

Same assay, conditions: C. glabrata; FICI using a fluconazole MIC of 128 μg/mL

Question: Which “FICI of combination resulting in fluconazole MIC of: 2 ug/mL (value in parenthesis)” value does the source give for `O=C(Cc1ccc(CCCCc2ccc(-c3ccccc3)cc2)cc1)NO` [Example 5, 2-(4-(4-(biphenyl-4-yl)butyl)phenyl)-N-hydroxyacetamide] here?
Answer: The value was 0.078.

Question: And the “FICI of combination resulting in fluconazole MIC of: 4 ug/mL (value in parenthesis)” value?
Answer: The value was 0.061.

Question: What about the “FICI of combination resulting in fluconazole MIC of: 8 ug/mL (value in parenthesis)” value of the same compound?
Answer: The value was 0.093.

Same assay, conditions: Nakaseomyces glabratus; MIC of the example compound alone against C. glabrata in the checkerboard assay, approximately 48 hr; read-out: Methylgene MIC

Question: How did the MIC turn out when `O=C(Cc1ccc(CCCCc2ccc(-c3ccccc3)cc2)cc1)NO` [Example 5, 2-(4-(4-(biphenyl-4-yl)butyl)phenyl)-N-hydroxyacetamide] was run?
Answer: Its MIC is 4 µg/mL.

Same assay, conditions: Nakaseomyces glabratus; test compound alone, C. glabrata, approx. 48 hr at 35° C.; read-out: Compound MIC

Question: Which MIC does the source give for `O=C(Cc1ccc(CCCCc2ccc(-c3ccccc3)cc2)cc1)NO` [Example 5, 2-(4-(4-(biphenyl-4-yl)butyl)phenyl)-N-hydroxyacetamide] here?
Answer: Its MIC is 4 µg/mL.

Same assay, conditions: concentration in combination as multiple of the compound's MIC alone; fluconazole MIC 2 ug/mL

Question: With `O=C(Cc1ccc(CCCCc2ccc(-c3ccccc3)cc2)cc1)NO` [Example 5, 2-(4-(4-(biphenyl-4-yl)butyl)phenyl)-N-hydroxyacetamide] as the compound, how does the “Multiple of compound MIC to synergize fluconazole MIC to 2 ug/mL” value read?
Answer: Its value is “( 1/16x)”.

Same assay, conditions: concentration in combination as multiple of the compound's MIC alone; fluconazole MIC 4 ug/mL

Question: `O=C(Cc1ccc(CCCCc2ccc(-c3ccccc3)cc2)cc1)NO` [Example 5, 2-(4-(4-(biphenyl-4-yl)butyl)phenyl)-N-hydroxyacetamide] was tested. Which “Multiple of compound MIC to synergize fluconazole MIC to 4 ug/mL” value did it give?
Answer: The value was “( 1/16x)”.

Same assay, conditions: concentration in combination as multiple of the compound's MIC alone; fluconazole MIC 8 ug/mL

Question: With `O=C(Cc1ccc(CCCCc2ccc(-c3ccccc3)cc2)cc1)NO` [Example 5, 2-(4-(4-(biphenyl-4-yl)butyl)phenyl)-N-hydroxyacetamide] as the compound, how does the “Multiple of compound MIC to synergize fluconazole MIC to 8 ug/mL” value read?
Answer: The value was “( 1/16x)”.

Same assay, conditions: in combination with fluconazole, C. glabrata; fluconazole MIC lowered to 2 ug/mL

Question: `O=C(Cc1ccc(CCCCc2ccc(-c3ccccc3)cc2)cc1)NO` [Example 5, 2-(4-(4-(biphenyl-4-yl)butyl)phenyl)-N-hydroxyacetamide] was tested. Which “Concentration of Methylgene compound to synergize fluconazole MIC to 2 ug/mL” value did it give?
Answer: The value was 0.25 µg/mL.

Same assay, conditions: in combination with fluconazole, C. glabrata; fluconazole MIC lowered to 4 ug/mL

Question: `O=C(Cc1ccc(CCCCc2ccc(-c3ccccc3)cc2)cc1)NO` [Example 5, 2-(4-(4-(biphenyl-4-yl)butyl)phenyl)-N-hydroxyacetamide] was tested. Which “Concentration of Methylgene compound to synergize fluconazole MIC to 4 ug/mL” value did it give?
Answer: The value was 0.12 µg/mL.

Same assay, conditions: in combination with fluconazole, C. glabrata; fluconazole MIC lowered to 8 ug/mL

Question: How did the “Concentration of Methylgene compound to synergize fluconazole MIC to 8 ug/mL” value turn out when `O=C(Cc1ccc(CCCCc2ccc(-c3ccccc3)cc2)cc1)NO` [Example 5, 2-(4-(4-(biphenyl-4-yl)butyl)phenyl)-N-hydroxyacetamide] was run?
Answer: Its value is 0.12 µg/mL.

The compounds below were run on Candida glabrata (assay: Minimal Inhibitory Concentration (MIC) assay, broth microdilution per CLSI). Conditions: Nakaseomyces glabratus; 24 hr reading (first value of cell 24 hr/48 hr); read-out: Minimum Inhibitory Concentrations against Yeast Isolates, Candida glabrata.
Type: cell-based
Experimental: (§4) The in vitro activities of the inventive compounds (compound(s) herein) against fungi and/or yeasts were determined with isolates Candida albicans, Candida glabrata and Candida parapsilosis. The comparator compounds included fluconazole, caspofungin and amphotericin B.
(§5) The compounds were supplied as a powder, and were dissolved in dimethylsulfoxide (DMSO) the day of assay. Stock solutions were prepared at 10 mg/mL and diluted to a starting stock concentration of 2.56 mg/mL. Amphotericin B was dissolved in DMSO to a stock concentration of 2.56 mg/mL. Fluconazole was dissolved in deionized water to a stock concentration of 2.56 mg/mL. Caspofungin was received as a stock solution of 3.2 mg/mL in DMSO and was diluted to a starting stock concentration of 2.56 mg/mL.
as §1, §2, §3
(§6) The MIC assay method followed the procedure described by the Clinical and Laboratory Standards Institute (CLSI; 1, 2, 3) and employed automated liquid handlers to conduct serial dilutions and liquid transfers. Automated liquid handlers included the Multidrop 384 (Labsystems, Helsinki, Finland), Biomek 2000 and Biomek FX (Beckman Coulter, Fullerton Calif.). The wells in columns 2-12 in standard 96-well microdilution plates (Costar 3795) were filled with 150 ul of 100% DMSO. These would become the ‘mother plates’ from which ‘daughter’ or test plates would be prepared. The compounds (300 uL at 40× the desired top concentration in the test plates) were dispensed into the appropriate well in Column 1 of the mother plates. The Biomek 2000 was used to make serial 1:1 dilutions through Column 11 in the “mother plate”. The wells of Column 12 contained no compounds and were the organism growth control wells.
(§7) The daughter plates were loaded with 185 uL per well of RPMI described above using the Multidrop 384. The daughter plates were prepared using the Biomek FX which transferred 5 μL of the compound solution from each well of a mother plate to the corresponding well of the daughter plate in a single step.
(§8) Standardized inoculum of each organism was prepared per CLSI methods. For yeast isolates, colonies were picked from the streak plate and a suspension was prepared in 0.85% saline. For the fungal isolate, 1 mL of 0.85% saline was dispensed onto the potato dextrose agar slant that had been inoculated 7-10 days previously. Using a swab, a suspension of the fungus was made. After a short time to allow the heavy particles to settle out, a small quantity of the supernatant was dispensed into 0.85% saline and the suspension adjusted to equal a 0.5 McFarland turbidity standard. Both yeast and fungal isolates were diluted 1:100 in RPMI and then transferred to compartments of sterile reservoirs divided by length (Beckman Coulter). The Biomek 2000 was used to inoculate the plates. Daughter plates were placed on the Biomek 2000 work surface reversed so that inoculation took place from low to high compound concentration. The Biomek 2000 delivered 10 μL of standardized inoculum into each well. Thus, the wells of the daughter plates ultimately contained 185 uL of RPMI, 5 uL of the compound solution, and 10 uL of inoculum. […]

Question: With `O=C(Cc1ccc(CCCCc2ccc(-c3ccccc3)cc2)cc1)NO` [Example 5, 2-(4-(4-(biphenyl-4-yl)butyl)phenyl)-N-hydroxyacetamide] as the compound, how does the MIC read?
Answer: Its MIC is 0.5 µg/mL (≈ 1.39 µM).

Same assay, conditions: Nakaseomyces glabratus; 48 hr reading (second value of cell 24 hr/48 hr); read-out: Minimum Inhibitory Concentrations against Yeast Isolates, Candida glabrata

Question: How did the MIC turn out when `O=C(Cc1ccc(CCCCc2ccc(-c3ccccc3)cc2)cc1)NO` [Example 5, 2-(4-(4-(biphenyl-4-yl)butyl)phenyl)-N-hydroxyacetamide] was run?
Answer: The MIC was 8 µg/mL (≈ 22.3 µM).

Each compound was assayed on Candida albicans in the same assay as above. Conditions: Candida albicans; 24 hr reading (first value of cell 24 hr/48 hr); read-out: Minimum Inhibitory Concentrations against Yeast Isolates, Candida albicans.
Type: cell-based
Experimental: as §4, §5, §1, §2, §3, §6, §7, §8

Question: Which MIC does the source give for `O=C(Cc1ccc(CCCCc2ccc(-c3ccccc3)cc2)cc1)NO` [Example 5, 2-(4-(4-(biphenyl-4-yl)butyl)phenyl)-N-hydroxyacetamide] here?
Answer: The MIC was > 8 µg/mL.

Same assay, conditions: Candida albicans; 48 hr reading (second value of cell 24 hr/48 hr); read-out: Minimum Inhibitory Concentrations against Yeast Isolates, Candida albicans

Question: For `O=C(Cc1ccc(CCCCc2ccc(-c3ccccc3)cc2)cc1)NO` [Example 5, 2-(4-(4-(biphenyl-4-yl)butyl)phenyl)-N-hydroxyacetamide], which MIC is on record?
Answer: Its MIC is > 8 µg/mL.

What follows are compounds tested on Candida parapsilosis in the same assay as above. Conditions: Lodderomyces parapsilosis; 24 hr reading (first value of cell 24 hr/48 hr); read-out: Minimum Inhibitory Concentrations against Yeast Isolates, Candida parapsilosis.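 Also: two read times 24 hr and 48 hr of incubation.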
Type: cell-based
Experimental: as §4, §5, §1, §2, §3, §6, §7, §8

Question: `O=C(Cc1ccc(CCCCc2ccc(-c3ccccc3)cc2)cc1)NO` [Example 5, 2-(4-(4-(biphenyl-4-yl)butyl)phenyl)-N-hydroxyacetamide] was tested. Which MIC did it give?
Answer: The MIC was > 8 µg/mL.

Same assay, conditions: Lodderomyces parapsilosis; 48 hr reading (second value of cell 24 hr/48 hr); read-out: Minimum Inhibitory Concentrations against Yeast Isolates, Candida parapsilosis

Question: For `O=C(Cc1ccc(CCCCc2ccc(-c3ccccc3)cc2)cc1)NO` [Example 5, 2-(4-(4-(biphenyl-4-yl)butyl)phenyl)-N-hydroxyacetamide], which MIC is on record?
Answer: The MIC was > 8 µg/mL.
